Source: ChEMBL document CHEMBL1201862, “PubChem BioAssay data set” (2004)
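Results reflect a 48-hour exposure of cells in 96-well plates to compound at five concentrations. GI50 = concentration required for 50% inhibition of growth.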 Active and inactive are the calls of the source. Rule as the data show it: active = GI50 up to about 1.1 µM and inactive = higher. Starred links: 1 amine or outer side, 2 acyl side, 3 side chain; linkers in the order of their positions; H or OH if unused. Non-standard residues stand in square brackets, D forms with d. Residues, ends and D or L forms follow the SMILES beside them. *: point of attachment. X47 = CCC(=O)CC1CC(C)CC(C(=O)[*:2])N1[*:1]; X46 = CCCCCCCCC(C)C(=O)*; Aib = CC(C)(N)C(=O)O; X48 = CC(CN(C)CCO)N*

Key:
Test in all cases: growth of human tumour cells (NCI), 48 h
[1] = system: 786-0
[2] = system: A549
[3] = system: ACHN
[4] = system: BT-549
[5] = system: CCRF-CEM
[6] = system: DU-145
[7] = system: EKVX
[8] = system: M14
[9] = system: MDA-MB-435
[10] = system: OVCAR-4
[11] = system: PC-3
[12] = system: RXF 393
[13] = system: SF-268
[14] = system: SK-MEL-28
[15] = system: SK-MEL-2
[16] = system: SK-OV-3
[17] = system: SW-620
[18] = system: U-251

Structure (SMILES)	GI50 [1]	GI50 [2]	GI50 [3]	GI50 [4]	GI50 [5]	GI50 [6]	GI50 [7]	GI50 [8]	GI50 [9]	GI50 [10]	GI50 [11]	GI50 [12]	GI50 [13]	GI50 [14]	GI50 [15]	GI50 [16]	GI50 [17]	GI50 [18]
N#Cc1nc(COCCOCc2ccc(F)cc2)oc1N	> 100 µM (inactive)	> 100 µM (inactive)	> 100 µM (inactive)	> 100 µM (inactive)	64.6 µM (inactive)	> 100 µM (inactive)	> 100 µM (inactive)	> 100 µM (inactive)	> 100 µM (inactive)	> 100 µM (inactive)	> 100 µM (inactive)	> 100 µM (inactive)	> 100 µM (inactive)	> 100 µM (inactive)	> 100 µM (inactive)	> 100 µM (inactive)	> 100 µM (inactive)	> 100 µM (inactive)
CSC1(SC2=NCCN2)SC2(NCCN2)S1	3.86 µM (inactive)	20.3 µM (inactive)	19 µM (inactive)	21.4 µM (inactive)	1.21 µM (inactive)	14.8 µM (inactive)	20.3 µM (inactive)	21.3 µM (inactive)	15.4 µM (inactive)	20.4 µM (inactive)	18.5 µM (inactive)	7.53 µM (inactive)	18.2 µM (inactive)	20.2 µM (inactive)	19.2 µM (inactive)	21.6 µM (inactive)	9.04 µM (inactive)	17.9 µM (inactive)
O=C1c2ccccc2-n2nnnc2C2CSCN12 (centres undefined)	> 100 µM (inactive)	> 100 µM (inactive)	> 100 µM (inactive)	> 100 µM (inactive)	> 100 µM (inactive)	> 100 µM (inactive)	> 100 µM (inactive)	> 100 µM (inactive)	> 100 µM (inactive)	> 100 µM (inactive)	> 100 µM (inactive)	> 100 µM (inactive)	> 100 µM (inactive)	> 100 µM (inactive)	> 100 µM (inactive)	> 100 µM (inactive)	> 100 µM (inactive)	> 100 µM (inactive)
C=CC(C)CCC(C/C=C(\C)CCCC(C)C)C(=C)CCCC(C)C (centres undefined)	> 100 µM (inactive)	> 100 µM (inactive)	> 100 µM (inactive)	> 100 µM (inactive)	> 100 µM (inactive)	> 100 µM (inactive)	> 100 µM (inactive)	> 100 µM (inactive)	> 100 µM (inactive)	> 100 µM (inactive)	> 100 µM (inactive)	> 100 µM (inactive)	> 100 µM (inactive)	> 100 µM (inactive)	> 100 µM (inactive)	> 100 µM (inactive)	> 100 µM (inactive)	> 100 µM (inactive)
CN(c1ccc(Cl)cc1)S(=O)(=O)c1ccc([N+](=O)[O-])cc1	> 100 µM (inactive)	> 100 µM (inactive)	> 100 µM (inactive)	> 100 µM (inactive)	> 100 µM (inactive)	> 100 µM (inactive)	> 100 µM (inactive)	> 100 µM (inactive)	> 100 µM (inactive)	> 100 µM (inactive)	> 100 µM (inactive)	> 100 µM (inactive)	> 100 µM (inactive)	> 100 µM (inactive)	> 100 µM (inactive)	> 100 µM (inactive)	> 100 µM (inactive)	> 100 µM (inactive)
O=C1/C(=C\c2cccc(Oc3ccccc3)c2)SC(c2ccccc2)N1c1cc(Cl)ccc1Cl (centres undefined)	27 µM (inactive)	51.5 µM (inactive)	43.7 µM (inactive)	36.8 µM (inactive)	0.0356 µM (active)	36 µM (inactive)	38.1 µM (inactive)	30.1 µM (inactive)	32.3 µM (inactive)	51.2 µM (inactive)	52.4 µM (inactive)	22.8 µM (inactive)	22.2 µM (inactive)	37.1 µM (inactive)	43.5 µM (inactive)	> 100 µM (inactive)	19 µM (inactive)	33.4 µM (inactive)
CC(=O)N(C)c1ccc(Nc2ccnc3ccc4nn(C)nc4c23)cc1	26.9 µM (inactive)	17.5 µM (inactive)	13.7 µM (inactive)	31.8 µM (inactive)	17.3 µM (inactive)	28.6 µM (inactive)	24.3 µM (inactive)	31.4 µM (inactive)	39.3 µM (inactive)	28.4 µM (inactive)	26.9 µM (inactive)	16.9 µM (inactive)	24.8 µM (inactive)	20.7 µM (inactive)	17.9 µM (inactive)	22.6 µM (inactive)	35.3 µM (inactive)	33.5 µM (inactive)
Oc1ccc(/C=N/c2ccccc2O)cc1	23.3 µM (inactive)	54.2 µM (inactive)	60.7 µM (inactive)	67.8 µM (inactive)	44.7 µM (inactive)	17 µM (inactive)	48 µM (inactive)	35.5 µM (inactive)	16.9 µM (inactive)	> 100 µM (inactive)	34.1 µM (inactive)	> 100 µM (inactive)	96.6 µM (inactive)	> 100 µM (inactive)	21.9 µM (inactive)	> 100 µM (inactive)	31.3 µM (inactive)	31.3 µM (inactive)
CCCCCCCCC(C)C(=O)N1CCCC1C(=O)N1C(CC(=O)CC)CC(C)CC1C(=O)NC(C)C(=O)NC(C)(C)C(=O)NC(C)(C)C(=O)NC(C(=O)NC(C)C(=O)NC(C)(C)C(=O)NC(C)(C)C(=O)NC(C)CN(C)CCO)C(C)CC (centres undefined) (X46-P[X47]A[Aib][Aib]IA[Aib][Aib]-X48; configuration not given here)	0.106 µM (active)	< 0.01 µM (active)	0.0368 µM (active)	1.57 µM (inactive)	< 0.0183 µM (active)	0.0847 µM (active)	< 0.01 µM (active)	0.593 µM (active)	1.41 µM (inactive)	< 0.0118 µM (active)	0.0103 µM (active)	1.85 µM (inactive)	0.581 µM (active)	2.89 µM (inactive)	0.369 µM (active)	1.19 µM (inactive)	0.0794 µM (active)	< 0.0498 µM (active)
COC(=O)C(=O)Nc1cc2c3c(c1)Oc1cccc4c1C3(C)c1c(cccc1O2)O4	30.9 µM (inactive)	> 100 µM (inactive)	> 82 µM (inactive)	> 100 µM (inactive)	1.26 µM (inactive)	> 44.7 µM (inactive)	> 82.6 µM (inactive)	> 100 µM (inactive)	> 100 µM (inactive)	> 100 µM (inactive)	97.1 µM (inactive)	18.7 µM (inactive)	> 100 µM (inactive)	> 100 µM (inactive)	> 87.7 µM (inactive)	> 100 µM (inactive)	> 100 µM (inactive)	> 100 µM (inactive)
N#C/C(=C1/c2cc([N+](=O)[O-])ccc2-c2c1cc([N+](=O)[O-])cc2[N+](=O)[O-])N1CCCCC1	39.2 µM (inactive)	> 100 µM (inactive)	> 100 µM (inactive)	> 100 µM (inactive)	> 100 µM (inactive)	38.5 µM (inactive)	> 100 µM (inactive)	86.9 µM (inactive)	> 100 µM (inactive)	23.9 µM (inactive)	> 100 µM (inactive)	34.6 µM (inactive)	> 100 µM (inactive)	> 100 µM (inactive)	> 100 µM (inactive)	93.1 µM (inactive)	> 100 µM (inactive)	71.8 µM (inactive)
C=C1c2nc3ccccc3n2C=C(c2ccc(OC)cc2)N1c1ccccc1	6.11 µM (inactive)	5.37 µM (inactive)	39.7 µM (inactive)	6.64 µM (inactive)	3.66 µM (inactive)	28.6 µM (inactive)	19 µM (inactive)	4.43 µM (inactive)	1.17 µM (inactive)	17.9 µM (inactive)	9.12 µM (inactive)	6.71 µM (inactive)	50 µM (inactive)	29.6 µM (inactive)	5.28 µM (inactive)	47.8 µM (inactive)	3.66 µM (inactive)	5.31 µM (inactive)
CCCCCCCCCCCCCCCCCCNc1ccn(C2OC(COP(=O)(O)OCC3OC(n4ccc(N)nc4=O)C(O)C3O)C(O)C2O)c(=O)n1 (centres undefined)	44.7 µM (inactive)	8.59 µM (inactive)	29.9 µM (inactive)	> 49.5 µM (inactive)	16.1 µM (inactive)	44.2 µM (inactive)	> 100 µM (inactive)	32 µM (inactive)	> 73.1 µM (inactive)	> 72.8 µM (inactive)	39.8 µM (inactive)	> 100 µM (inactive)	63.8 µM (inactive)	> 92 µM (inactive)	> 100 µM (inactive)	> 86.9 µM (inactive)	> 89.7 µM (inactive)	57.8 µM (inactive)
COC(=O)CNS(=O)(=O)c1ccc(-c2c3nc(c(-c4ccc(S(=O)(=O)NCC(=O)OC)cc4)c4ccc([nH]4)c(-c4ccc(S(=O)(=O)NCC(=O)OC)cc4)c4nc(c(-c5ccc(S(=O)(=O)NCC(=O)OC)cc5)c5ccc2[nH]5)C=C4)C=C3)cc1	> 100 µM (inactive)	> 100 µM (inactive)	> 100 µM (inactive)	> 100 µM (inactive)	> 100 µM (inactive)	> 100 µM (inactive)	> 100 µM (inactive)	18.7 µM (inactive)	> 100 µM (inactive)	> 100 µM (inactive)	> 100 µM (inactive)	> 100 µM (inactive)	> 100 µM (inactive)	> 100 µM (inactive)	> 100 µM (inactive)	> 100 µM (inactive)	> 100 µM (inactive)	82.6 µM (inactive)
COc1ccc(N2C(=O)C(Cl)C2c2cc3cc(Br)ccc3nc2Cl)cc1 (centres undefined)	6.17 µM (inactive)	11 µM (inactive)	4.89 µM (inactive)	4.46 µM (inactive)	1.86 µM (inactive)	7.46 µM (inactive)	4.67 µM (inactive)	4.86 µM (inactive)	4.71 µM (inactive)	4.36 µM (inactive)	7.13 µM (inactive)	4.09 µM (inactive)	6.38 µM (inactive)	7.28 µM (inactive)	5.12 µM (inactive)	16.6 µM (inactive)	5.55 µM (inactive)	
